From patent US8778966B2, “Quinolinone derivatives as PARP and tank inhibitors” (Janssen Pharmaceutica, NV, priority 2007, dated 2014)
Where two headings read alike, the source gives them in different places.

What was measured:
HCT116 cells = assay: Antiproliferative activity, Alamar Blue assay, HCT116 cells; type: cell-based, human; design: key to HCT116 antiproliferative activity pIC50: pIC50 = -log IC50 (IC50: conc. reducing growth to 50% of control); settings: for IC50: Homo sapiens, HCT-116, HCT116 cells, read-out: HCT116 antiproliferative activity pIC50 (converted)
Summary of the method: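 HCT116 cells seeded, adhered 24 h, then exposed to compound for 4 days; Alamar Blue (resazurin) added for 4 h at 37 °C, fluorescence read at 540/590 nm. Viability as % of untreated control, triplicate wells; IC50 by probit analysis, reported as pIC50.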

PC3 cells = assay: EB1 Comet (microtubule disruption) assay; type: cell-based, human; settings: 1 hour treatment; for minimal effective concentration: Homo sapiens, PC-3, 1 h, read-out: EB1 pLAC (converted)
Summary of the method: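 PC3 human prostate cancer cells exposed to compound for 1 h at 37 °C (0.6% DMSO final), methanol-fixed, immunostained for Eb1 and imaged at 20×. Value is the lowest active concentration (LAC): the concentration at which Eb1 foci are absent in at least 50% of treated cells.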

Compound | minimal effective concentration (PC3 cells) [µM] | IC50 (HCT116 cells; Alamar Blue) [µM] | other results
CCc1cc2ccc(C(C)(C#N)Cc3cccc(C#N)n3)cc2[nH]c1=O (single isomer, unassigned) [Compound 207] | 0.1 |  | HCT116 antiproliferative activity pIC50 (HCT116 cells; HCT116 cells, Alamar Blue): 7.0
CCc1cc2ccc([C@@](C)(C#N)Cc3cccc(N(C)C)c3)cc2[nH]c1=O (single isomer, unassigned) [Compound 258] | 0.316 | 0.251 | 
CCc1cc2ccc([C@](C)(C#N)Cc3cccc(N(C)C)c3)cc2[nH]c1=O (single isomer, unassigned) [Compound 259] |  | 10 | 
CCC[C@@](C#N)(Cc1ccccc1)c1ccc2cc(CC)c(=O)[nH]c2c1 (single isomer, unassigned) [Compound 263] | 3.16 | 3.16 | 
CCC[C@](C#N)(Cc1ccccc1)c1ccc2cc(CC)c(=O)[nH]c2c1 (single isomer, unassigned) [Compound 264] |  | 10 | 
CCc1cc2ccc([C@@](C)(C#N)Cc3cccc(C#N)c3)cc2[nH]c1=O (single isomer, unassigned) [Compound 268] |  | 10 | 
CCc1cc2ccc([C@](C)(C#N)Cc3cccc(C#N)c3)cc2[nH]c1=O (single isomer, unassigned) [Compound 269] | 0.1 | 0.2 | 
CCc1cc2ccc([C@](C)(C#N)C[C@@H]3Cc4cc(C)ccc4O3)cc2[nH]c1=O (single isomer, unassigned) [Compound 400] |  | 10 | 
C#Cc1cccc(C[C@](C)(C#N)c2ccc3cc(CC)c(=O)[nH]c3c2)c1 [Compound 2] |  | 10 | 
C#Cc1cccc(C[C@@](C)(C#N)c2ccc3cc(CC)c(=O)[nH]c3c2)c1 [Compound 3] | 0.01 | 0.0398 | 
CCc1cc2ccc(C(C#N)(CC)Cc3ccccc3)cc2[nH]c1=O (stereo not drawn) [Compound 32] | 1 |  | IC50 (HCT116 cells): 2 µM
COc1ccccc1-c1nc(CC(C)(C#N)c2ccc3cc(C)c(=O)[nH]c3c2)no1 (stereo not drawn) [Compound 33] |  |  | IC50 (HCT116 cells): 0.794 µM
Cc1cc2ccc(C(C)(C#N)Cc3cccc(C#N)c3)cc2[nH]c1=O (stereo not drawn) [Compound 34] | 0.316 |  | IC50 (HCT116 cells): 0.2 µM
Cc1cc2ccc([C@@](C)(C#N)Cc3cccc(C#N)c3)cc2[nH]c1=O [Compound 35] |  |  | IC50 (HCT116 cells): 7.94 µM
Cc1cc2ccc([C@](C)(C#N)Cc3cccc(C#N)c3)cc2[nH]c1=O [Compound 36] | 0.316 |  | IC50 (HCT116 cells): 0.0501 µM
Cc1cc2ccc(C(C)(C#N)Cc3cccc(Cl)c3)cc2[nH]c1=O (stereo not drawn) [Compound 37] | 3.16 |  | IC50 (HCT116 cells): 0.316 µM
CC(C)c1cc2ccc(C(C)(C#N)Cc3ccccc3)cc2[nH]c1=O (stereo not drawn) [Compound 38] |  |  | IC50 (HCT116 cells): > 10 µM
CC(=O)c1cc2ccc(C(C)(C#N)Cc3ccccc3)cc2[nH]c1=O (stereo not drawn) [Compound 39] |  |  | IC50 (HCT116 cells): > 10 µM
CCc1cc2ccc(C(C)(C#N)Cc3cccc(OC[C@@H](O)CO)c3)cc2[nH]c1=O (stereo partly drawn) [Compound 56] | 3.16 | 3.16 | 
CCc1cc2ccc(C(C)(C#N)Cc3cccc(CCC#N)c3)cc2[nH]c1=O (stereo not drawn) [Compound 169] |  | 5.01 | EB1 pLAC (PC3 cells): 6
CCc1cc2ccc(C(C)(C#N)Cc3cccc(CNS(C)(=O)=O)c3)cc2[nH]c1=O (stereo not drawn) [Compound 170] | 3.16 | 5.01 | 
C=Cc1cccc(CC(C)(C#N)c2ccc3cc(CC)c(=O)[nH]c3c2)c1 (stereo not drawn) [Compound 172] | 0.1 | 0.501 | 
CCc1cc2cc(F)c(C(C)(C#N)Cc3cccc(C#N)c3)cc2[nH]c1=O (stereo not drawn) [Compound 175] | 1 | 0.631 | 
CCc1c(C)c2ccc(C(C)(C#N)Cc3cccc(C#N)c3)cc2[nH]c1=O (stereo not drawn) [Compound 181] | 0.316 | 2.51 | 
CCc1cc2cc(OCCOC)c(C(C)(C#N)Cc3cccc(C#N)c3)cc2[nH]c1=O (stereo not drawn) [Compound 182] |  | 6.31 | 
CCc1cc2ccc(C(C)(C#N)Cc3cccc(C#CCO)c3)cc2[nH]c1=O (stereo not drawn) [Compound 183] | < 0.0316 | 0.0631 | 
CCc1cc2ccc(C(F)(C#N)Cc3ccccc3)cc2[nH]c1=O (stereo not drawn) [Compound 187] | 5.62 | 3.16 | 
CCc1cc2ccc(C(C)(C#N)CN(C)Cc3ccccc3)cc2[nH]c1=O (stereo not drawn) [Compound 189] | 1 | 1.26 | 

Compound | minimal effective concentration (PC3 cells) [µM] | IC50 (HCT116 cells; Alamar Blue) [µM] | other results
CCc1cc2ccc(C(C)(C#N)C(C)c3ccccc3)cc2[nH]c1=O (stereo not drawn) [Compound 198] | 0.316 | 2 | 
CCc1cc2ccc([C@](C)(C#N)[C@@H](C)c3ccccc3)cc2[nH]c1=O [Compound 199] |  | 10 | 
CCc1cc2ccc([C@](C)(C#N)[C@H](C)c3ccccc3)cc2[nH]c1=O [Compound 200] | 0.316 | 1.58 | 
CCc1cc2ccc(C(C)(C#N)Cc3cccc(C#C[Si](C)(C)C)n3)cc2[nH]c1=O (stereo not drawn) [Compound 210] | 0.316 | 0.501 | 
C#Cc1cccc(CC(C)(C#N)c2ccc3cc(CC)c(=O)[nH]c3c2)n1 (stereo not drawn) [Compound 211] | 0.1 | 0.316 | 
CCc1cc2ccc(C(C)(C#N)Cc3cccc(N(C)C)n3)cc2[nH]c1=O (stereo not drawn) [Compound 213] | 0.316 | 0.501 | 
CCc1cc2ccc(C(C)(C#N)Cc3cccc(I)n3)cc2[nH]c1=O (stereo not drawn) [Compound 214] | 0.1 | 0.501 | 
CCOC(=O)c1cccc(CC(C)(C#N)c2ccc3cc(CC)c(=O)[nH]c3c2)n1 (stereo not drawn) [Compound 215] | 0.316 | 1.58 | 
CCc1cc2ccc(C(C)(C#N)Cc3cccc(COC)n3)cc2[nH]c1=O (stereo not drawn) [Compound 216] | 1 | 2 | 
CCc1cc2ccc(C(C)(C#N)Cc3cccc(OCCOC)n3)cc2[nH]c1=O (stereo not drawn) [Compound 219] | 1 | 5.01 | 
CCc1cc2ccc(C(C)(C#N)Cc3cccc(CN)n3)cc2[nH]c1=O (stereo not drawn) [Compound 221] | 3.16 | 1.26 | 
CCc1cc2ccc(C(C)(C#N)Cc3cccc(OCCO)c3)cc2[nH]c1=O (stereo not drawn) [Compound 262] |  | 0.251 | 
CCc1cc2ccc(C(C)(C#N)CCOc3cccc(C(F)(F)F)c3)cc2[nH]c1=O (stereo not drawn) [Compound 274] |  | 6.31 | 
CCc1cc2ccc(C(C)(C#N)Cc3cccc(CN)c3)cc2[nH]c1=O (stereo not drawn) [Compound 290] | 3.16 | 0.158 | 
CCc1cc2ccc(C(C)(C#N)Cc3cccc(/C=C/S(C)(=O)=O)c3)cc2[nH]c1=O (stereo not drawn) [Compound 292] | 0.1 | 0.501 | 
CCc1c(Cl)c2ccc(C(C)(C#N)Cc3cccc(C#N)c3)cc2[nH]c1=O (stereo not drawn) [Compound 293] | 1 | 0.794 | 
CCc1cc2cc(OC)c(C(C)(C#N)Cc3ccccc3)cc2[nH]c1=O (stereo not drawn) [Compound 294] |  | 6.31 | 
CCc1cc2ccc(C(C)(C#N)Cc3cccc(C#CCOC)c3)cc2[nH]c1=O (stereo not drawn) [Compound 297] | 0.1 | 0.398 | 
CCc1cc2ccc(C(C)(C#N)Cc3cccc(C#CCN(C)C)c3)cc2[nH]c1=O (stereo not drawn) [Compound 298] | 1 | 2.51 | 
CCc1cc2ccc(C(C)(C#N)CNCc3cccc(C#N)c3)cc2[nH]c1=O (stereo not drawn) [Compound 301] | 3.16 | 3.98 | 
CCc1cc2ccc(C(C)(C#N)Cc3cnc(Cl)nc3Cl)cc2[nH]c1=O (stereo not drawn) [Compound 306] | 3.16 | 2 | 
COc1cc(OC)nc(CC(C)(C#N)c2ccc3cc(C)c(=O)[nH]c3c2)n1 (stereo not drawn) [Compound 308] |  | 0.316 | 
CCc1cc2ccc(C(C)(C#N)Cc3ccc(C)nc3)cc2[nH]c1=O (stereo not drawn) [Compound 327] |  | 2 | 
CCc1cc2ccc(C(C)(C#N)Cc3cccc(CO)n3)cc2[nH]c1=O (stereo not drawn) [Compound 345] |  | 2 | 
CCc1cc2ccc(C(C)(C#N)Cc3cccc(OC)n3)cc2[nH]c1=O (stereo not drawn) [Compound 353] |  | 0.2 | 
CCc1cc2ccc(C(C)(C#N)Cc3cc(OC)nc(OC)n3)cc2[nH]c1=O (stereo not drawn) [Compound 358] |  | 3.16 | 
CCc1cc2ccc(C(C)(C#N)Cc3cc(OC)ccn3)cc2[nH]c1=O (stereo not drawn) [Compound 373] |  | 7.94 | 
